According to US10864212B2, “Compositions and methods for treating retinal degradation” (University of Kentucky Research Foundation, priority 2013, dated 2020):
Entries after “also recorded” stand apart in the source; their conditions may differ.

What was measured:
RPE degeneration = experiment: Alu RNA-induced RPE degeneration in wild type mice, d4T co-delivered to the vitreous humor; format: in vivo, mouse; conditions: sub-retinal Alu RNA, increasing amounts, one week after delivery, FIG. 1
From the text: Arrows denote depigmented regions of RPE cell death, which resolve at highest dose of d4T.

HeLa cells = experiment: MTS proliferation assay of HeLa cells treated with Alu RNA expression plasmid (pAluA); format: cell-based, human; conditions: pAluA vs pUC19, d4T co-administration, FIG. 2
Alu RNA = experiment: Northern blot of Alu RNA levels in primary human RPE cells; format: cell-based
From the text: FIG. 4 provides another example of the results of Northern blotting using an Alu-specific probe.
FIG. 45 is a Northern blot of biotin-UTP-labeled Alu RNA-transfected primary human RPE cells.
As presented in FIG. 3, primary human RPE cells treated with antisense oligonucleotides targeting DICER1 (Dcr as) (lane 3 (third lane from left)) show increased Alu RNA levels in the nuclear compartment compared to control antisense oligonucleotides (Ctr as) (lane 1 (leftmost)), monitored by Northern blotting using an Alu-specific probe.
For example, primary human RPE cells may be transfected with Alu RNA, with or without d4T. […] U6 (bottom row) is shown as loading control for nuclear fraction in FIG. 4.
And FIG. 45 presents a Northern blot of biotin-UTP-labeled Alu RNA-transfected primary human RPE cells.

IRAK4 [1] = experiment: Western blot of IRAK4 phosphorylation in primary human RPE cells transfected with Alu RNA; format: cell-based; conditions: FIG. 34
From the text: Alu RNA mediates RPE cell death via activation of Caspase 1 and the NLRP3 inflammasome (Tarallo et al., 2012).

Caspase-1 = experiment: Western blot of Caspase-1 activation in primary mouse RPE cells transfected with Alu RNA; format: cell-based; conditions: FIG. 44
IRAK4 [2] = experiment: Western blot of IRAK4 phosphorylation in primary mouse RPE cells transfected with Alu RNA; format: cell-based; conditions: FIG. 44
Casp-1 = experiment: LPS/ATP-induced Casp-1 activation in primary human RPE cells; format: cell-based; conditions: d4T 25/100 uM, FIG. 8
From the text: Vinculin was used as the loading control in the gel of FIG. 8. Additionally, as shown, LPS and ATP activate the NLRP3 inflammasome only in combination.
The loading control in FIG. 8 is vinculin. Furthermore, as shown, LPS and ATP activate the NLRP3 inflammasome only in combination, thus treatment with one or the other alone is useful as a control for this experiment.

IL-18 = experiment: LPS/ATP-induced IL-18 maturation in mouse bone marrow-derived macrophages (Western blot); format: cell-based; conditions: supernatants, 100 uM, FIG. 9
From the text: To produce FIG. 9, cell culture supernatants were collected after (i) no treatment, (ii) LPS treatment, or (iii) LPS/ATP treatment of mouse bone marrow-derived macrophages and run on Western blotting probing with antibodies for Caspase-1 and IL-18.

NLRP3 mRNA = experiment: NLRP3 priming (mRNA) induced by Alu RNA in primary human RPE cells; format: cell-based; conditions: Alu RNA transfection, 16 hours, d4T 100 uM, FIG. 13
Method: Indeed, as provided in the bar graph of FIG. 13, Alu RNA transfection increases NLRP3 mRNA levels in primary human RPE cells at 16 hours, an event termed “priming” (Y-axis) compared to mock (transfection reagent alone).

[3] = test system: mitochondrial reactive oxygen species (mtROS); experiment: MitoSox assay of mitochondrial ROS in primary human RPE cells with Alu expressing plasmid; format: cell-based; conditions: pAluA vs pUC19, after 15 hours, FIG. 15, 54
Method: After 15 hours cells were co-stained for mtROS (red) and for cell count, nuclei (blue; Hoechst DNA stain).
In FIG. 54, mitochondrial reactive oxygen species (ROS) were visualized with MitoSox (Red) and cell nuclei with Hoechst (Blue).

ATP release = ATP release induced by Alu RNA from primary human RPE cells (ATP-dependent luciferase assay); format: cell-based; conditions: cell culture supernatant, FIG. 16, 42
From the text: Cell culture supernatant was collected from mock or Alu RNA treated cells, with or without d4T, and ATP was detected using an ATP-dependent luciferase assay.
(FIG. 16) Primary human RPE cells treated with Alu RNA for the times indicated release ATP. […] ATP was detected using an ATP-dependent luciferase assay.

human P2X7 receptor = target: T1, human P2X7 receptor (Homo sapiens, UniProt Q99572); experiment: bzATP-induced YO-PRO-1 dye uptake in HEK293 cells stably expressing the human P2X7 receptor; format: cell-based
T1 construct: expressed in transfected cells
T1 sequence (Q99572 1-595): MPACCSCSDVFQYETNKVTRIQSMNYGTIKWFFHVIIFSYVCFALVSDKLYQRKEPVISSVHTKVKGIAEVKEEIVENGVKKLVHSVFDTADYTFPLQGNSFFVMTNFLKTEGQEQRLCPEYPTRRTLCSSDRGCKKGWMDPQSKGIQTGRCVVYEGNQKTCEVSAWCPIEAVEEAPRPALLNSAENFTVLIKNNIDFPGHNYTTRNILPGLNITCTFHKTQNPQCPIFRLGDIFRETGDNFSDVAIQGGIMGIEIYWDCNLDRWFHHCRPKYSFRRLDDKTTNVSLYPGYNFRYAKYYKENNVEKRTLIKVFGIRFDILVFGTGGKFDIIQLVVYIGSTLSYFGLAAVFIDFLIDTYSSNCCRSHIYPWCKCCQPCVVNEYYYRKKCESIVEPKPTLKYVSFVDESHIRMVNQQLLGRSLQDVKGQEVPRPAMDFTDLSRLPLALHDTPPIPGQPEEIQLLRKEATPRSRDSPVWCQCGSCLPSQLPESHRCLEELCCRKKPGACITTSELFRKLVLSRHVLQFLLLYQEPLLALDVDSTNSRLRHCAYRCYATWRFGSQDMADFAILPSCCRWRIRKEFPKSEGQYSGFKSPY
From the text: Finally, P2X7 activation is associated with the formation of a large pore that is permeable to molecules of up to ˜1000 Da (Adinolfi et al., 2005; Cheewatrakoolpong et al., 2005; Surprenant et al., 1996).

mtDNA = mtDNA levels in primary mouse RPE cells by real-time quantitative PCR; format: cell-based
From the text: The present disclosure further provides the results of additional experiments in FIG. 21-FIG. 23.

[4] = test system: graft-versus-host disease; experiment: Graft-versus-host disease model, mice receiving allogeneic bone marrow and T cells; format: in vivo, mouse; conditions: saline treated controls 0%
From the text: (§1) To explore the potential therapeutic relevance of NRTIs beyond the Alu-induced model of geographic atrophy (GA), it was hypothesized that if NRTIs function as generic inflammasome inhibitors, then they might be broadly useful in other animal models of disease that are also driven by P2X7.

neutrophil migration = experiment: NLRP3- and P2X7-driven model of sterile inflammation (liver injury); format: in vivo
From the text: as §1

Cc1cn([C@H]2C=C[C@@H](CO)O2)c(=O)[nH]c1=O [d4T, 2′3′ dideoxythymidine]
Alu RNA-induced RPE degeneration / RPE cell death (fundus photographs, ZO-1 flat mounts) (RPE degeneration): prevents Alu RNA-induced RPE cell death in a dose-dependent manner; also recorded: restored to healthy RPE morphology/intercellular junctions at highest dose of d4T
Cell viability / cell death induced by Alu overexpression (MTS) (HeLa cells): prevented cell death induced by Alu overexpression
Alu RNA levels (normalized to u6 RNA) (Alu RNA; biotin-UTP-labeled Alu RNA-transfected primary human RPE cells, FIG. 45): without reducing Alu RNA levels; also recorded: did not reduce Alu RNA levels
Alu RNA levels in nuclear fraction (Alu RNA; human RPE cells transfected with Alu RNA, 1, 4, or 24 hours after transfection, FIG. 4): does not change Alu RNA levels
Alu RNA levels in nuclear compartment (Alu RNA; primary human RPE cells treated with antisense oligonucleotides targeting DICER1, FIG. 3): does not reduce Alu RNA levels
IRAK4 phosphorylation (IRAK4 [1]): blocks phosphorylation of IRAK4
Caspase 1 cleavage to its active 20 kDa form (Caspase-1): prevents Caspase 1 cleavage to its active 20 kDa form
IRAK4 phosphorylation (IRAK4 [2]): blocks phosphorylation of IRAK4
Casp-1 activation induced by LPS/ATP (Casp-1): blocks
IL-18 maturation induced by LPS/ATP (IL-18): inhibit
NLRP3 mRNA levels (priming), normalized to 18S RNA (NLRP3 mRNA): blunted
Mitochondrial ROS (mtROS) caused by Alu expression (MitoSox) [3]: blocks mitochondrial ROS (mtROS) production; also recorded: reduces mitochondrial ROS caused by Alu expression; also recorded: prevents pAlu-induced mitochondrial ROS generation
ATP release induced by Alu RNA (ATP release): does not block release of ATP; also recorded: did not affect ATP release; also recorded: does not block Alu-induced ATP release
YO-PRO-1 iodide entry stimulated with bzATP (human P2X7 receptor; HEK293 human P2X7, pre-incubated 30 minutes, fluorescence 485/515 nm at t=30 minutes, FIG. 19): blocked YO-PRO-1 iodide entry
P2X7-mediated YO-PRO-1 dye uptake (fluorescence) induced by bzATP (human P2X7 receptor; bzATP 100 μM, 64 μM for both drugs, p<0.05, n=12, FIG. 43): inhibited
P2X7-dependent uptake of YO-PRO1 after addition of bzATP (human P2X7 receptor; human P2X7-overexpressing HEK293 stable cell line, concentration not given): inhibited P2X7-dependent uptake of the fluorescent dye YO-PRO1
mtDNA levels (normalized to chromosomal DNA exon-intron junction sequence) (mtDNA): reduces mtDNA levels
Survival [4]: 30-70%
Neutrophil migration to the focus of liver injury (neutrophil migration): reduced neutrophil migration to the focus of liver injury
